Assays:
Assay type in all cases: in vivo
[1] = system: Housefly [Musca domestica]; test: Housefly insecticidal test; details: μg per 25 female flies; mortality after 48 hours
In short: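 LC50 (μg compound per 25 female flies) derives from dosage-mortality curves of 48 h kill. Flies, females 1-2 days old, were held 25 per cage over a dish coated with dried acetone deposit, starting at 100 μg per cage and descending.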

[2] = system: Tobacco Budworm [Heliothis virescens (Fabricius)] eggs; test: Tobacco budworm egg test; details: 2-day old eggs, percent in solution
In short: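 Mortality of dipped eggs served as read-out, recorded after untreated controls hatched and began feeding. Treatments used acetone solutions from 0.1% downward, with eggs incubated at 78° F; LC50 is expressed as percent of compound in the solution.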

[3] = system: Rice water weevil [Lissorhoptrus oryzophilus (Kuschel)]; test: Rice water weevil insecticidal test; details: topical, μg per weevil; 48 hours
Method: (§1) The compounds in Tables 1 and 2 above were tested for insecticidal activity using the following testing procedures. LC50 values, based on the results of these tests and calculated according to dosage-mortality curves, are expressed in Table 3.
Rice water weevil [Lissorhoptrus oryzophilus (Kuschel)]:
Test compounds were diluted in acetone. Droplets (1 μl) of test solutions were applied to the ventral abdomens of ten female adult weevils. The treated weevils were placed in containers with wet cotton balls and rice foliage. The containers were covered and kept at a temperature of about 25° C. Mortality was recorded after 48 hours. Test concentrations ranged from […] or 2.5 μg per weevil down to that at which 50% mortality occurred. The LC50 values are expressed below in Table 3 under the heading "RWW" in terms of μg of test compound per weevil.

[4] = system: Aster Leafhopper [Macrosteles fascifrens (Stal)]; test: Aster leafhopper insecticidal test; details: adults/nymphs, percent in solution; 48 hours
In short: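 LC50 values, given as percent of test compound in the dip solution, were derived from dosage-mortality curves over concentrations from 0.05% downward. Mortality was counted 48 hours after ten leafhopper adults/nymphs were enclosed on treated seedlings. The seedlings were oats, about 10 cm tall, briefly dipped in 50-50 acetone-water.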

[5] = system: Cabbage Looper [Trichoplusia ni (Hubner)]; test: Cabbage looper insecticidal test; details: second-instar larvae, percent in solution; 3-5 days
In short: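 Steps: dilute compound in 50-50 acetone-water from 0.1% downward; immerse cotyledon pieces 2-3 s and dry; place in humid petri dishes with five second-instar larvae; record mortality at 3-5 days. Dosage-mortality curves yield LC50 as percent in solution.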

[6] = system: Maize weevil [Sitophilus Zeamais (Motschulsky)]; test: Maize weevil insecticidal test; details: adult weevils, percent in solution; 48 hours
In short: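 LC50, in percent of compound in solution, was derived from dosage-mortality curves after 48 h at about 25 °C. Ten adult weevils per container fed on four corn seeds briefly immersed in acetone:water (50:50) solutions of up to 0.01% and dried.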

[7] = system: Tobacco Budworm [Heliothis virescens (Fabricius)] larvae; test: Tobacco budworm contact test; details: second-instar larvae, percent in solution, 5 days
In short: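 Cotton cotyledons dipped 2–3 s in compound in 50-50 acetone-water, dried, then infested with 5 second-instar larvae and held 5 days at high humidity. Mortality scored; LC50 from dosage-mortality curves, expressed as percent compound in solution, concentrations from 0.1% downward.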

[8] = system: Beet Armyworm (Spodoptera exigua); test: Beet armyworm insecticidal test; details: second-instar larvae, percent in solution; five days
Method: as §1
Beet Armyworm (Spodoptera exigua):
Test compounds were diluted in a 50-50 acetone-water solution. Young leaves of sugar beets (Beta vulgaris) were immersed in the test solutions for 2-3 seconds and placed on a wire screen to dry. The dried leaves were placed in petri dishes containing a moistened filter paper and infested with five second-instar beet armyworm larvae. The dishes were placed in a high humidity chamber. Mortality of the larvae was recorded five days later. Test concentrations ranged from 0.1% downward. The LC-50 values are expressed below in Table 3 under the heading "BAW" in terms of percent of the test compound in solution.

Compound	LC50, HF [1] [µg]	LC50, TBW, E (TBW-E) [2] [%]	LC50, RWW [3] [µg]	LC50, LH [4] [%]	LC50, CL [5] [%]	LC50, MW [6] [%]	LC50, TBW, C (TBW-C) [7] [%]	LC50, BAW [8] [%]
CC(C)C(=Nc1ccc(C(F)(F)F)cc1)OCc1cccc(Oc2ccccc2)c1 [Compound 68]	37	0.009	0.15	0.0001	0.006	> 0.01		
CCC(=Nc1ccc(F)c(Cl)c1)OCc1cccc(Oc2ccccc2)c1 [Compound 85]	7	> 0.1	> 2.5	0.003	0.004	> 0.01		
Fc1ccc(N=C(OCc2cccc(Oc3ccccc3)c2)C2CC2)cc1Cl [Compound 113]	15	0.1	> 2.5		0.005			
CC(C)C(=Nc1ccc(F)c(Cl)c1)OCc1cccc(Oc2cccc(F)c2)c1 [Compound 125]	12	0.025	> 2.5	> 0.05	0.0007	> 0.01		
CC(C)C(=Nc1ccc(F)c(Cl)c1)OCc1cccc(Oc2ccc(F)cc2F)c1 [Compound 191]	29	0.04	> 2.5	> 0.05	0.00023	0.004		
CC(C)C(=Nc1c(F)c(F)c(F)c(F)c1F)OCc1cccc(Oc2ccc(F)cc2)c1 [Compound 198]	52	> 0.1	> 2.5	0.05	0.0005	0.003		
CC(C)C(=Nc1ccc(F)c(Cl)c1)OCc1cc(Oc2ccc(F)cc2)ccc1F [Compound 230]	36	0.1	> 2.5		0.0004	0.038		
CC(C)C(=Nc1ccc(F)c(Br)c1)OCc1cccc(Oc2ccccc2)c1 [Compound 254]	6	0.026	> 2.5		0.001			
CC(C)C(=Nc1ccc(F)c(Cl)c1)OCc1cccc(Oc2ccc(F)cc2)c1F [Compound 262]	26	> 0.1	> 2.5		0.0004	0.005		
CC(C)C(=Nc1ccc(Cl)c(Cl)c1)OCc1ccc(F)c(Oc2ccc(F)cc2)c1 [Compound 289]	10	0.006	0.082	0.0003	0.00007	> 0.01		
CC(C)(F)C(=Nc1ccc(F)c(Cl)c1)OCc1ccc(F)c(Oc2ccc(F)cc2)c1 [Compound 310]	4.5	0.015	> 2.5		0.00006			
CC(C)C(=Nc1ccc(C(F)(F)F)cc1)OCc1ccc(F)c(Oc2ccc(F)cc2)c1 [Compound 314]	21	0.012	0.11		0.00005			
CC(C)C(=Nc1ccc(OC(F)(F)F)cc1)OCc1ccc(F)c(Oc2ccc(F)c(F)c2)c1 [Compound 347]	30	> 0.1		0.0002	0.000075	> 0.01	0.0001	0.00075
CC(C)C(=Nc1ccc(F)c(F)c1F)OCc1cccc(Oc2ccc(F)cc2)c1 [Compound 348]	8	> 0.1		0.05	0.0002	> 0.01	0.00075	> 0.1
CCOc1ccc(N=C(OCc2ccc(F)c(Oc3ccc(Cl)cc3)c2)C(C)C)cc1Cl [Compound 369]	> 100	> 0.1	> 2.5		0.0016	> 0.01		
CCOc1ccc(N=C(OCc2ccc(F)c(Oc3ccccc3)c2)C(C)C)cc1Cl [Compound 370]	< 100	0.02	> 2.5		0.00034	> 0.01		
CC(C)C(=Nc1cccc(F)c1)OCc1ccc(F)c(Oc2ccc(Cl)cc2)c1 [Compound 375]	7.9	0.04	> 2.5		> 0.1	> 0.01		
CC(C)C(=Nc1ccc(Cl)c(Cl)c1)OCc1ccc(F)c(Oc2ccccc2)c1 [Compound 376]	17	0.02	0.1		0.00037	0.0061		
CC(C)C(=Nc1ccc(C(F)(F)F)c(Br)c1)OCc1ccc(F)c(Oc2ccc(Cl)cc2)c1 [Compound 377]	< 100	> 0.1	> 2.5		0.00062	> 0.01		
CC(C)C(=Nc1ccc(Br)cc1)OCc1ccc(F)c(Oc2ccc(Cl)cc2)c1 [Compound 378]	< 100	0.02	> 2.5		0.00034	> 0.01		
CC(C)C(=Nc1ccc(Br)c(Cl)c1)OCc1cccc(Oc2ccc(Cl)cc2)c1 [Compound 380]	> 100	> 0.1	> 2.5		> 0.1	> 0.01		
CC(C)C(=Nc1ccc(Br)c(Cl)c1)OCc1ccc(F)c(Oc2ccc(Cl)cc2)c1 [Compound 381]	< 100	0.018	> 2.5		0.00092	> 0.01		
CC(C)C(=Nc1ccc(Br)c(Cl)c1)OCc1ccc(F)c(Oc2ccc(F)cc2)c1 [Compound 382]	< 100	0.027	> 2.5		0.00029	> 0.01		
CC(C)C(=Nc1cccc(Br)c1)OCc1ccc(F)c(Oc2ccccc2)c1 [Compound 387]	< 100	0.05	> 2.5		0.0012	> 0.01		
CC(C)C(=Nc1ccc(Cl)cc1)OCc1ccc(F)c(Oc2ccc(Cl)cc2)c1 [Compound 391]	< 100	0.035	> 2.5		0.00029	> 0.01		
C=C(C)C(=Nc1ccc(C(F)(F)F)cc1)OCc1ccc(F)c(Oc2ccccc2)c1 [Compound 431]	9.8	0.025	0.084		0.00017	0.0037		
CC(C)C(=Nc1ccc(C(F)(F)F)c(Br)c1)OCc1ccc(F)c(Oc2ccc(Cl)cc2)c1 [Compound 433]	< 100	0.02	0.078		0.00017	0.005		
CC(C)C(=Nc1ccc(Cl)c(OCC(F)(F)F)c1)OCc1ccc(F)c(Oc2ccc(Cl)cc2)c1 [Compound 452]	> 100	< 0.1	0.1		0.0017	> 0.01		

From patent US5070210A, “Novel ketenimines as intermediates for insecticides” (ICI Americas Inc., priority 1990, dated 1991)
